What was measured:
MYC overexpressing cells = assay: IC261 viability by CellTiter-Glo in cells with or without MYC overexpression; format: cell-based, human; conditions: 48 hrs, HFF with or without c-Myc, Tet21N with or without doxycyclin, IMR-32
Description: (§1) a. HFF cell lines with or without c-Myc over-expression were treated with 0-10 uM IC261 for 48 hrs. The cells were exposed to CellTiter-Glo reagent and viability was assessed by ATP-induced chemiluminescence. Values indicate mean±SD. b. Tet21N cells with or without doxycyclin treatment and IMR-32 cells (MYCN+) were treated with 0-30 uM IC261 for 48 hrs. The cells were exposed to CellTiter-Glo reagent and the viability was assessed by ATP-induced chemiluminescence. Values indicate mean±SD. c. Cell growth curves for HFF-pBabe incubated with different concentrations of IC261. d. Cell growth curves for HFF-MYC incubated with different concentrations of IC261.
(§2) As there is strong selection to escape lentiviral-mediated silencing of genes that are necessary for cell growth, we proceeded to evaluate a small molecule inhibitor of CSNK1e enzymatic activity, IC261^33. […] A cohort of ten xenograft bearing mice was randomized into two groups with approximate equal tumor burden; one group was treated with daily subcutaneous injection of IC261 for 8 consecutive days, while the control group was treated with DMSO vehicle only. […] Taken together, the results obtained by genetic knock-down as well as via small molecule inhibitor validate CSNK1e as a potential therapeutic target for MYCN-driven neuroblastoma.

[1] = tested on: MYCN amplified neuroblastoma xenograft (IMR32); assay: IC261 treatment of MYCN amplified neuroblastoma xenograft; format: in vivo, NOD/SCID mice
Description: FIG. 3. IC261 treatment blocks MYCN amplified neuroblastoma tumor growth in vivo. a, Representative images of MYCN amplified neuroblastoma xenograft in NOD/SCID mice before and after treatment with either DMSO or IC261. Tumors were engrafted, and allowed to reach a size of about 100 mm^3, then IC261 (21.5 mg/kg) or DMSO was injected subcutaneously daily for 8 days. b, Quantitation of tumor size over the 8-day treatment regimen with either IC261 or DMSO control. Values represent mean tumor volume at each time point (n=5 for each group, error bars indicate SD). c, Immunohistochemical analysis of tumor sections from IC261 and DMSO treatment groups described in a and b. Representative images of H-E, TUNEL and BrdU staining for each group are shown. BrdU was administered 2 h before collection. d. Quantification of TUNEL positive cells and BrdU positive cells per field in DMSO or IC-261 treated xenograft tumors. Error bars indicate SD of means.
as §2

IMR-32 cells (MYCN+) = assay: IC261 viability by CellTiter-Glo in IMR-32 cells; format: cell-based, human; conditions: 0-30 uM, 48 hrs
Description: as §1, §2

HFF-MYC = assay: High throughput siRNA screen, cell viability by Alamar Blue, c-MYC overexpressing cells; format: cell-based, human
Description: (§3) FIG. 1. Identification of synthetic lethal genes with c-MYC overexpression by high throughput siRNA screening. a, Graphical schematic of the siRNA screen. HFF expressing either c-MYC or transduced with an empty retroviral vector, pB, were plated in 384 well plates. 24 hr later they were transfected with siRNA pools (3 siRNAs/pool) targeting a total of ˜3,311 genes, with one gene targeted per well. At day 5, the viability was quantified utilizing an Alamar Blue staining assay and an EnVision plate reader. b, Graphical representation of cell viability as affected by each siRNA pool in both HFF-pB or HFF-c-MYC and quantified as % relative to mock (on a log10 scale). Values represent the average viability of 3 replicates. A set of siRNAs (targeting 102 genes labeled as light shaded+) caused differential loss of viability (Z score>2) in the HFF-MYC versus control pB. An additional set of siRNAs targeting 20 genes caused selective growth advantage to HFF-MYC. c, CSNK1e, PES1 and CECR2 mRNA levels following lentiviral-mediated shRNA knock-down. Relative levels of each gene were calculated using the ΔΔCT method and using GAPDH to normalize mRNA levels within each sample. d, Viability of HFF-pBabe and HFF-Myc following stable, lentiviral based knock-down of MYC-SL genes CSNK1e, PES1 and CECR2. […] Y-axis indicates the % of cells stained with anti-γ-H2AX that scored for nuclear fluorescence levels above a negative control established threshold. Quantitation was obtained by automated microscopy in 96 well format, from triplicate samples. g, Quantitative assessment of Caspase-3 and -7 cleavage following transfection of the same siRNA pools as above (measured by the CaspaseGlo kit, Promega). […]
We employed a high throughput robotics-based approach for massive parallel testing of an arrayed siRNA library to accurately quantify the effects of siRNAs against ˜3,300 druggable genes and 200 microRNAs on the viability of HFF-MYC (stably transduced with a retroviral vector expressing c-MYC), or a control empty vector, HFF-pB^14, see FIG. 1a for schematic of the experimental set-up). […]

HFF-pB = assay: High throughput siRNA screen, cell viability by Alamar Blue, control cells; format: cell-based, human; conditions: siRNA pool (3 siRNAs/pool), day 5, average of 3 replicates, relative to median of wells transfected with siRNA to luciferase
Description: as §3, with “A set of siRNAs (targeting 102 genes labeled as light shaded+) caused differential loss of viability (Z score>2) in the HFF-MYC versus control pB. An additional set of siRNAs targeting 20 genes caused selective growth advantage to HFF-MYC. c, CSNK1e, PES1 and CECR2 mRNA levels following lentiviral-mediated shRNA knock-down.” left out

Compound | differences in IC50, MYC overexpressing versus normal or low MYC expressing cells (MYC overexpressing cells) [fold] | tumor growth ([1]; 21.5 mg/kg subcutaneously daily for 8 days) | apoptosis by TUNEL staining of tumor tissue ([1]; after IC261 treatment) | BrdU labeling of tumor tissue ([1]; after IC261 treatment, BrdU 2 h before collection) | sensitivity to IC261 in vitro (IMR-32 cells (MYCN+)) | Z score (>than) (HFF-MYC; differential loss of viability HFF-MYC versus HFF-pB) | Ratio pBabe/Myc (HFF-MYC; ratio of percent viability of a given siRNA pool in HFF-pB/HFF-MYC) | % Viability HFF-MYC (HFF-MYC; siRNA pool (3 siRNAs/pool), day 5, average of 3 replicates, relative to median of wells transfected with siRNA to luciferase) [%] | % Viability HFF-pB (HFF-pB) [%]
COc1cc(OC)c(C=C2C(O)=Nc3ccccc32)c(OC)c1 [IC261] | > 100 | effective in halting tumor growth in all treated mice | very little apoptosis was detected | marked decrease in BrdU labeling | highly sensitive | – | – | – | –
CTPS | – | – | – | – | – | > 2.5 | 3.63 | 19.44 | 70.57

From US9273317B2, “Methods and compositions for inhibiting the growth and/or proliferation of MYC-driven tumor cells” (Fred Hutchinson Cancer Research Center, priority 2011, dated 2016)
